In ChEMBL document CHEMBL1157287, “Steroidal saponins from the rhizomes of Polygonatum sibiricum” (J Nat Prod, 2006):
pIC50: −log10 of the molar value.

Tested on: MCF7
Test: Cytotoxicity against human MCF7 cells by MTT assay
Assay type: functional, cell-based

SMILES | pIC50
CC(=O)O[C@@H]1C[C@H](O[C@@H]2O[C@H](C)[C@H](O[C@@H]3O[C@H](CO)[C@@H](O)[C@H](O)[C@H]3O[C@@H]3O[C@H](CO)[C@@H](O)[C@H](O)[C@H]3O)[C@H](O)[C@H]2O)CC2=CC[C@H]3[C@@H]4C[C@@H]5O[C@@]6(OC[C@@H](C)[C@@H](O)[C@@H]6O)[C@@H](C)[C@@H]5[C@@]4(C)CC[C@@H]3[C@]21C | < 4.00
CC1CC[C@@]2(OC1)O[C@H]1C[C@H]3[C@@H]4CC=C5C[C@@H](O[C@@H]6O[C@H](CO)[C@H](O[C@@H]7O[C@H](CO)[C@@H](O)[C@H](O)[C@H]7O[C@@H]7O[C@H](CO)[C@@H](O)[C@H](O)[C@H]7O)[C@H](O)[C@H]6O)CC[C@]5(C)[C@H]4CC[C@]3(C)[C@H]1[C@@H]2C (mixture of isomers) | 4.61
